Test results as given in US11951210B2, “Methods for making giant vesicles and their use” (THE JOHNS HOPKINS UNIVERSITY, priority 2017, dated 2024).

Target: FKBP (FK506 binding protein) and FRB (FKBP-rapamycin binding) protein (Homo sapiens, UniProt P42345+P62942)
Assay: Chemically inducible dimerization (FKBP/FRB) protein translocation in GUVs on external rapamycin
Format: biochemical
Settings: rapamycin added outside the vesicles
Source text: 3A) Schematic of the GUV containing fluorescently-labeled FK506 binding protein (FKBP) and FKBP-rapamycin binding (FRB) proteins. In this embodiment, FKBP peptide is fused to the positively charged myristoylated alanine-rich protein kinase c substrate (MARCKS) domain and binds to the negatively charged phosphatidylserine lipids present at the inner leaflet. The FKBP binding partner, FRB, is luminal. […] The normalized intensity profiles are the intensity traces of the dashed line in each image.
This was achieved by using the chemically inducible dimerization paradigm where FKBP (FK506 binding protein) and FRB (FKBP-rapamycin binding) protein can hetrodimerize in the presence of rapamycin.

Chain of FKBP (FK506 binding protein) and FRB (FKBP-rapamycin binding) protein (P62942 whole entry): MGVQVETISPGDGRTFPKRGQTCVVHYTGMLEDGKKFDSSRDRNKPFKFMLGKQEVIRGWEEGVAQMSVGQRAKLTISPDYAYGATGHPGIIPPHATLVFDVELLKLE
Chain of FKBP (FK506 binding protein) and FRB (FKBP-rapamycin binding) protein (P42345 2012-2144 limits assumed): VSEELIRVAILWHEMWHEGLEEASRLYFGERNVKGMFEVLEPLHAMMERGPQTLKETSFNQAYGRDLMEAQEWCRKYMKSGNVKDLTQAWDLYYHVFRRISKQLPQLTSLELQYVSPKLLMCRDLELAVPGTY

Permeation of the GUV membrane: permeates the vesicles
Structure (SMILES): CO[C@H]1C[C@@H]2CC[C@@H](C)[C@@](O)(O2)C(=O)C(=O)N2CCCC[C@H]2C(=O)O[C@H]([C@H](C)C[C@@H]2CC[C@@H](O)[C@H](OC)C2)CC(=O)[C@H](C)/C=C(\C)[C@@H](O)[C@@H](OC)C(=O)[C@H](C)C[C@H](C)/C=C/C=C/C=C/1C [rapamycin]
